Measurements from ChEMBL document CHEMBL1201862, “PubChem BioAssay data set” (2004).
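In this assay, cells in 96-well plates receive the compound at five concentrations for 48 hours. Endpoints are linearly interpolated between the surrounding concentrations. At the GI50, growth is halved.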 Active and inactive are the calls of the source. Cut-off read from the data, not from the text of the source: active = GI50 up to about 1.1 µM and inactive = higher.

Assays:
Test in all cases: NCI anticancer screen, dose series, 48 h
[1] = tested on: SR
[2] = tested on: HCC 2998
[3] = tested on: MOLT-4
[4] = tested on: SK-MEL-28
[5] = tested on: U-251
[6] = tested on: PC-3
[7] = tested on: NCI-H460
[8] = tested on: HCT-15
[9] = tested on: OVCAR-3
[10] = tested on: BT-549
[11] = tested on: SK-MEL-2
[12] = tested on: UO-31
[13] = tested on: SNB-19
[14] = tested on: OVCAR-4
[15] = tested on: UACC-257
[16] = tested on: EKVX
[17] = tested on: ACHN
[18] = tested on: TK-10
[19] = tested on: SN12C
[20] = tested on: LOX IMVI
[21] = tested on: CCRF-CEM
[22] = tested on: KM12
[23] = tested on: A549
[24] = tested on: 786-0
[25] = tested on: NCI/ADR-RES
[26] = tested on: DU-145
[27] = tested on: K562
[28] = tested on: MDA-MB-435
[29] = tested on: HT-29
[30] = tested on: MCF7
[31] = tested on: SK-MEL-5
[32] = tested on: M14
[33] = tested on: COLO 205
[34] = tested on: MDA-N
[35] = tested on: OVCAR-8
[36] = tested on: OVCAR-5
[37] = tested on: Malme-3M
[38] = tested on: CAKI-1
[39] = tested on: HCT-116
[40] = tested on: RPMI-8226
[41] = tested on: HOP-62
[42] = tested on: NCI-H23
[43] = tested on: HL-60
[44] = tested on: SF-295
[45] = tested on: HOP-92
[46] = tested on: MDA-MB-231
[47] = tested on: UACC-62
[48] = tested on: RXF 393
[49] = tested on: SF-539
[50] = tested on: SK-OV-3
[51] = tested on: SF-268
[52] = tested on: A498
[53] = tested on: NCI-H226
[54] = tested on: SNB-75
[55] = tested on: SW-620

In the case of `O=C(c1ccc2ccccc2c1)C1S(=O)(=O)OCCOS1(=O)=O`, the GI50 [1] is reported as > 100 µM (inactive), the GI50 [2] is reported as > 100 µM (inactive) and the GI50 [3] is reported as > 100 µM (inactive). The GI50 [4] was > 100 µM (inactive), the GI50 [5] was > 100 µM (inactive) and the GI50 [6] was > 100 µM (inactive). For the same compound, the GI50 [7] was > 100 µM (inactive), the GI50 [8] was > 100 µM and the GI50 [9] was > 100 µM (inactive). For the same compound, the GI50 [10] was > 100 µM (inactive), the GI50 [11] was > 100 µM (inactive) and the GI50 [12] was > 100 µM (inactive). For the same compound, the GI50 [13] was > 100 µM (inactive), the GI50 [14] was > 100 µM (inactive) and the GI50 [15] was > 100 µM (inactive). The GI50 [16] was > 100 µM (inactive), the GI50 [17] was > 100 µM (inactive) and the GI50 [18] was > 100 µM (inactive). For the same compound, the GI50 [19] was > 100 µM (inactive), the GI50 [20] was > 100 µM (inactive) and the GI50 [21] was > 100 µM (inactive). For the same compound, the GI50 [22] was > 100 µM (inactive), the GI50 [23] was > 100 µM (inactive) and the GI50 [24] was > 100 µM (inactive). The GI50 [25] was > 100 µM (inactive), the GI50 [26] was > 100 µM (inactive) and the GI50 [27] was > 100 µM (inactive). For the same compound, the GI50 [28] was > 100 µM (inactive), the GI50 [29] was > 100 µM (inactive) and the GI50 [30] was > 100 µM (inactive). The GI50 [31] was > 100 µM (inactive), the GI50 [32] was > 100 µM (inactive) and the GI50 [33] was > 100 µM (inactive). The GI50 [34] was > 100 µM (inactive), the GI50 [35] was > 100 µM (inactive) and the GI50 [36] was > 100 µM (inactive). For the same compound, the GI50 [37] was > 100 µM (inactive), the GI50 [38] was > 100 µM (inactive) and the GI50 [39] was > 100 µM (inactive). For the same compound, the GI50 [40] was > 100 µM (inactive), the GI50 [41] was > 100 µM (inactive) and the GI50 [42] was > 100 µM (inactive). For the same compound, the GI50 [43] was > 100 µM (inactive) and the GI50 [44] was > 100 µM (inactive).
With `Cc1c(C#N)c2nnn(C)c(=O)n2c1-c1ccccc1` the GI50 [2] was > 100 µM (inactive), the GI50 [4] was > 100 µM (inactive) and the GI50 [45] was > 100 µM (inactive). The GI50 [5] was > 100 µM (inactive), the GI50 [46] was > 100 µM (inactive) and the GI50 [6] was 54.5 µM (inactive). The GI50 [7] was > 100 µM (inactive), the GI50 [8] was > 100 µM and the GI50 [9] was > 100 µM (inactive). For the same compound, the GI50 [10] was 87.7 µM (inactive), the GI50 [47] was > 100 µM (inactive) and the GI50 [48] was > 100 µM (inactive). The GI50 [11] was > 100 µM (inactive), the GI50 [12] was 95.5 µM (inactive) and the GI50 [13] was > 100 µM (inactive). The GI50 [49] was > 100 µM (inactive), the GI50 [14] was > 100 µM (inactive) and the GI50 [15] was 34.4 µM (inactive). For the same compound, the GI50 [16] was 56 µM (inactive), the GI50 [17] was > 100 µM (inactive) and the GI50 [18] was > 100 µM (inactive). The GI50 [19] was > 100 µM (inactive), the GI50 [21] was 64.1 µM (inactive) and the GI50 [22] was 57.1 µM (inactive). For the same compound, the GI50 [50] was > 100 µM (inactive), the GI50 [23] was 86.3 µM (inactive) and the GI50 [51] was > 100 µM (inactive). The GI50 [25] was 17.5 µM (inactive), the GI50 [28] was > 100 µM (inactive) and the GI50 [52] was 98.6 µM (inactive). For the same compound, the GI50 [53] was 62.1 µM (inactive), the GI50 [30] was 71 µM (inactive) and the GI50 [54] was 23.6 µM (inactive). The GI50 [55] was > 100 µM (inactive), the GI50 [32] was > 100 µM (inactive) and the GI50 [34] was > 100 µM (inactive). For the same compound, the GI50 [35] was 48.2 µM (inactive), the GI50 [36] was > 100 µM (inactive) and the GI50 [38] was > 100 µM (inactive). The GI50 [40] was 84.9 µM (inactive), the GI50 [41] was > 100 µM (inactive) and the GI50 [42] was 59.3 µM (inactive). For the same compound, the GI50 [43] was 30.8 µM (inactive) and the GI50 [44] was 51.6 µM (inactive).
